# Laboratory results from EPA's ToxValDB 9.5.
# Values joined by “and” are separate entries in the source; they are usually repeats but may differ in a detail not shown here. Equal entries are not always repeated.
# Assays:
# Tagia sp. = details: acute; mortality
# Oncorhynchus mykiss = details: for LC50: acute, duration: 96 hours, mortality
# Mus musculus = details: for NOAEL: chronic
# Apis mellifera = details: acute, mortality
# Rattus norvegicus = details: for LD50: acute
# Gallus gallus = details: oral, diet
# Bovidae = details: oral
# Canidae = details: Dog Other
# Pontoscolex corethrurus = details: acute; mortality
# Anas platyrhynchos = details: oral, mortality
# [1] = chronic, duration: 2 years, body weight
# [2] = subchronic, duration: 90 days, oral, diet, F, Not specified, clinical chemistry
# [3] = reproduction developmental, clinical signs
smiles,measurement,setting,value
Oc1cccc2cccnc12 [8-Hydroxyquinoline],LC50,Tagia sp.,> 409 mg/kg
same,LC50,Oncorhynchus mykiss,2 µg/mL
same,LD50,"Colinus virginianus; acute, oral, diet, mortality",> 1070 mg/kg-day
same,LD50,"Colinus virginianus; acute, oral, mortality",311 mg/kg
same,LD50,"Mus musculus; acute, oral, mortality",177 mg/kg
same,LD50,"Apis mellifera; oral, unspecified",> 68.6 µg/piece
same,NOAEL,"Oryctolagus sp.; developmental, development",5 mg/kg-day
same,NOAEL,Rattus norvegicus; [1],73.3 mg/kg-day
same,NOAEL,"Rattus norvegicus; subchronic, duration: 90 days, oral, hematological",97.7 mg/kg-day
CC(O)C(=O)[O-].CC(O)C(=O)[O-].[Ca+2] (configuration not stated) [Calcium lactate],LEL,"Gallus gallus; subchronic, duration: 42 days, Chicken, no effects",30000 mg/kg-day
N#Cc1nn(-c2c(Cl)cc(C(F)(F)F)cc2Cl)c(N)c1S(=O)C(F)(F)F (configuration not stated) [Fipronil],LD50,Apis mellifera; dermal,0.00593 µg/piece
same,LD50,"Apis mellifera; oral, unspecified",0.00417 µg/piece
CS(=O)(=O)c1cc(C(F)(F)F)ccc1C(=O)c1cnoc1C1CC1 [Isoxaflutole],NOAEL,"Oryctolagus sp.; developmental, development",5 mg/kg-day
same,NOAEL,"Rattus norvegicus; chronic, duration: 2 years, histopathology: nonneoplastic",2 mg/kg-day
same,NOAEL,"Rattus norvegicus; reproduction developmental, organ weight",2 mg/kg-day
O=N[O-] [Nitrite ion],NOAEL,"Bovidae; repeat dose other, hematological",3.3 mg/kg-day
same,NOAEL,"Sus scrofa; repeat dose other, oral, diet, Not specified, hematological",3.3 mg/kg-day
same,NOEL,"Rattus norvegicus; chronic, duration: 2 years, oral, drinking water, gross pathology",6.7 mg/kg-day
O=[N+]([O-])[O-] [Nitrate],NOEL,"Canidae; chronic, duration: 125 days, growth",370 mg/kg-day
same,NOAEL,"Sus scrofa; subchronic, duration: 84 days, Not specified, no effects",410 mg/kg-day
same,NOEL,"Rattus norvegicus; chronic, duration: 2 years, growth",370 mg/kg-day
CCN(CC)c1ccc(C(=C2C=CC(=[N+](CC)CC)C=C2)c2cc(O)c(S(=O)(=O)[O-])cc2S(=O)(=O)[O-])cc1.[Na+] [C.I. Food Blue 5:2],NOAEL,"Mus musculus; duration: 21 months, M, hematological",500 mg/kg-day
same,NOAEL,"Mus musculus; duration: 23 months, F, hematological",500 mg/kg-day
"c1cnc2c(n1)CCCC2 [5,6,7,8-Tetrahydroquinoxaline]",LC50,Pontoscolex corethrurus,238 mg/kg
CCCSP(=O)(OCC)SCCC [Ethoprop],NOEL,"Colinus virginianus; reproduction developmental, mortality",0.088 mg/kg-day
same,NOEL,Rattus norvegicus; chronic,7.3 mg/kg-day
"CCOC(=O)C(CC)C(C)=O (configuration not stated) [Butanoic acid, 2-ethyl-3-oxo-, ethyl ester]",NOAEL,"repeat dose other, development",600 mg/kg-day
CCOc1ccc2c(c1)C(C)=CC(C)(C)N2 [Ethoxyquin],LC50,Oncorhynchus mykiss,18 µg/mL
same,LC50,"Colinus virginianus; acute, oral, diet, mortality",> 2420 mg/kg-day
same,NOEC,"Colinus virginianus; short-term, oral, diet",1500 mg/kg-day
same,NOEL,"Canidae; subchronic, duration: 90 days, clinical signs",2 mg/kg-day
same,LD50,"Rattus norvegicus; oral, mortality",1730 mg/kg-day
"CCCCCCCCCCCCN(C)C [N,N-Dimethyldodecan-1-amine]",NOAEL,reproduction developmental,50 mg/kg-day
same,NOAEL,"Rattus norvegicus; chronic, duration: 2 years, oral, diet",50 mg/kg-day
same,NOAEL,"Rattus norvegicus; short-term, duration: 28 days, mortality",50 mg/kg-day
C[C@@H]1Cc2c(Cl)cc(C(=O)N[C@@H](Cc3ccccc3)C(=O)O)c(O)c2C(=O)O1 [Ochratoxin A],LEL,"Gallus gallus; repeat dose other, organ weight",0.5 mg/kg-day
same,LEL,"Canidae; short-term, duration: 14 days, histopathology: nonneoplastic",0.2 mg/kg-day
same,LOAEL,Sus scrofa; [2],0.008 mg/kg-day
same,LOEL,Sus scrofa; [2],0.008 mg/kg-day
Cc1ccc(C(C)C)cc1O [Isopropyl-o-cresol],LEL,"Sus scrofa; subchronic, duration: 6 weeks, oral, diet, M/F, Not specified, no effects",2000 mg/kg-day
Cc1cccc2nccnc12 [5-Methylquinoxaline],LC50,Pontoscolex corethrurus,272 mg/kg
"CCc1ncc(C)nc1CC [Pyrazine, 2,3-diethyl-5-methyl-]",LC50,Pontoscolex corethrurus,228 mg/kg
O=c1c2cc(F)ccc2nc(-n2cncn2)n1-c1ccc(Cl)cc1Cl [Fluquinconazole],LD50,"Colinus virginianus; acute, oral, mortality",> 2000 mg/kg-day
same,NOEL,Colinus virginianus; chronic,1.9 mg/kg-day
same,LD50,"Anas platyrhynchos; acute, unspecified",> 2000 mg/kg-day
same,LD50,"Anas platyrhynchos; short-term, feed",> 210 mg/kg-day
same,LD50,Rattus norvegicus; mortality,> 112 mg/kg-day
same,NOAEL,Rattus norvegicus; chronic,0.9 mg/kg-day
NC(N)=NCC(=O)O [N-(Aminoiminomethyl)glycine],LEL,"Gallus gallus; subchronic, duration: 35 days, hematological",1500 mg/kg-day
C=CCc1ccc(O)c(OC)c1 [Eugenol],LC50,Oncorhynchus mykiss,5.6 µg/mL and > 10 µg/mL
same,NOAEL,Oryctolagus sp.; [3],100 mg/kg-day
same,LD50,"Rattus norvegicus; oral, mortality",1930 mg/kg
same,NOAEL,Rattus norvegicus; [1],300 mg/kg-day
same,NOEL,"Rattus norvegicus; developmental, development",250 mg/kg-day
same,NOAEL,Rattus norvegicus; [3],100 mg/kg-day
COc1nc(C)nc(N)n1 [2-Methyl-4-amino-6-methoxy-s-triazine],LD50,"acute, dermal, F, mortality",1000 mg/kg
same,LC50,"acute, inhalation, mortality",> 5.2 µg/mL
COC(=O)CCC(=O)O[C@H]1CC(C)(C)C(/C=C/C(C)=C/C=C/C(C)=C/C=C/C=C(C)/C=C/C=C(C)/C=C/C2=C(C)C(=O)[C@@H](OC(=O)CCC(=O)OC)CC2(C)C)=C(C)C1=O [Astaxanthin dimethylsuccinate],LEL,"Oncorhynchus mykiss; chronic/long-term, duration: 8 weeks, oral, feed, no effects",908 mg/kg
same,NOAEL,"Mus musculus; duration: 80 weeks, oral, body weight",14 mg/kg-day
C1CCC(SSC2CCCCC2)CC1 [Dicyclohexyl disulfide],NOAEL,"subchronic, duration: 90 days, oral",0.23 mg/kg-day
O=C([O-])c1ccccc1.[Na+] [Sodium benzoate],LEL,"Sus scrofa; repeat dose other, oral, diet, M/F, Not specified, no effects",36000 mg/kg-day
same,LEL,"Sus scrofa; subchronic, duration: 36 days, oral, diet, Duroc, body weight",36000 mg/kg-day
same,LEL,"Sus scrofa; subchronic, duration: 42 days, oral, diet, Not specified, body weight",36000 mg/kg-day
CSCCC(O)C(=O)[O-].CSCCC(O)C(=O)[O-].[Zn+2] (configuration not stated),LEL,"Gallus gallus; subchronic, duration: 8 weeks, clinical chemistry",450 mg/kg-day
same,LEL,"Gallus gallus; subchronic, duration: 35 days, Chicken, body weight",450 mg/kg-day
same,LEL,"Bovidae; subchronic, duration: 57 days, diet, no effects",450 mg/kg-day
same,LEL,"Sus scrofa; subchronic, duration: 42 days, oral, diet, M/F, Not specified, body weight",450 mg/kg-day
